In patent US6133311A, “Method for preventing or treating elevated blood lipid level-related diseases by administering natural phenolic compounds” (priority 1998, dated 2000):

Key:
HMG-CoA reductase = target: T1, HMG-CoA reductase (Rattus norvegicus, UniProt P51639); experiment: HMG-CoA reductase inhibition in liver microsomes of fed rats; type: biochemical; settings: liver microsomes of rats fed 0.1% compound, vs Control
T1 construct: from tissue; host or cells: rat liver microsomes
T1 sequence (P51639 1-887): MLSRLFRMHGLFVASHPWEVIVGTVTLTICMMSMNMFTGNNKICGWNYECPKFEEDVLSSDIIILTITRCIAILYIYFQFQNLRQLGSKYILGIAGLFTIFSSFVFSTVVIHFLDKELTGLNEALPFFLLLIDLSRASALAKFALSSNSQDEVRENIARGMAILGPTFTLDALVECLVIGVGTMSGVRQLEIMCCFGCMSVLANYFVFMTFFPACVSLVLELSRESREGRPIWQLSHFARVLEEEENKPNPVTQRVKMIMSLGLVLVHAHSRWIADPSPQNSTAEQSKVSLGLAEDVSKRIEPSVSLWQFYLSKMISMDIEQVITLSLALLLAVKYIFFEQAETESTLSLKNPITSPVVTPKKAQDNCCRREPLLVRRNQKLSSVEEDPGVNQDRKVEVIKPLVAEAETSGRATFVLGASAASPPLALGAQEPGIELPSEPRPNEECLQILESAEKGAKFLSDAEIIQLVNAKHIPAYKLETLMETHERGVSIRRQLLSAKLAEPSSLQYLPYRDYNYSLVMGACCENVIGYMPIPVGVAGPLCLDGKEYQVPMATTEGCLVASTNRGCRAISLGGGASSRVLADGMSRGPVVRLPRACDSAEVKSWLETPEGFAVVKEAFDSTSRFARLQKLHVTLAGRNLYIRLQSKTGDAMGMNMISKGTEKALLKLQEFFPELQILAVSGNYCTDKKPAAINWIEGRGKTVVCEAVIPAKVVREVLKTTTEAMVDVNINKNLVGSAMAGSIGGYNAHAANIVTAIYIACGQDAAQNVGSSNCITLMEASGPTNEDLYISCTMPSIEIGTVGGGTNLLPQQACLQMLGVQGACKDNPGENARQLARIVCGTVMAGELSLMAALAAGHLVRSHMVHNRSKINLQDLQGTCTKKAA
Experimental: Activity of tannin or gallic acid in HMG-CoA Reductase Inhibition
In order to determine the activity of HMG-CoA reductase, Hulcher's method was employed after some modification (see J. Lipid Res., 14, 625-641 (1973)). In this method, the concentration of the coenzyme-A (CoA-SH), which is produced when HMG-COA is reduced to a mevalonate salt by the action of HMG-COA reductase, is determined by spectroscopy and the activity of HMG-CoA reductase is calculated therefrom.
(Step 1) Preparation of microsomes
3 g of liver tissue taken from each group of rats of Example 2 was washed successively with 100 ml of a cold Saline (0.15M NaCl) and 100 ml of a cold buffer solution A (0.1M triethanolamine, HCl/0.2M EDTA/2 mM dithiothreitol (DTT)). The cold buffer solution A was added to the liver tissue in an amount of 2 ml per 1 g of the liver tissue and the mixture was homogenized with a homogenizer. […]
Then, the reactant was mixed with 20 μl of DTNB buffer solution (3mM DTNB/0.1M triethanolamine/0.2M EDTA, pH 7.4) and the absorbance of the mixture was determined at 412 nm to calculate the amount of CoA-SH (activity of HMG-COA reductase).
The extent of inhibition of HMG-CoA reductase activity by tannin and gallic acid were calculated based on the above result.

[1] = system: main artery (arterial endothelium); experiment: analysis for fatty streak in the main artery of rabbits; type: in vivo, New Zealand White rabbits; settings: for Fatty streak (proportion of stained region to total arterial area): 1% cholesterol diet plus 0.1% compound (Lovastatin 1 mg/kg), Control 35 ± 14; for Fatty streak (proportion of stained region to total arterial area) / plaque formation in the endothelium of the main artery: 6 weeks; for deposition of macrophages on the arterial endothelium: blood cholesterol level high
Experimental: 30 three-month-old male New Zealand White rabbits (Yeonam Horticulture and Animal Husbandry College, Korea), each weighing about 2.5 to 2.6 kg, were raised under a condition of temperature 20+2° C., relative humidity 55±5%, and photoperiod 12L/12D. The rabbits were divided into 5 groups and 5 groups of rabbits were fed with 5 different diets, i.e., RC4 diet (Oriental Yeast Co., Japan) containing 1% cholesterol (Control group, 1); 1% cholesterol plus 1 mg/kg Lovastatin® (Merck, U.S.A.) (Lovastatin® group, 2); 1% cholesterol plus 0.1% tannin (3); 1% cholesterol plus 0.1% gallic acid (4); and 1% cholesterol plus 0.1% ellagic acid (5), respectively. RC4 diet comprises 7.6% moisture, 22.8% crude protein, 2.8% crude fat, 8.8% crude ash, 14.4% crude cellulose and 43.6% soluble nitrogen-free substances. Tannin, gallic acid and ellagic acid were purchased from Sigma Chemical Co. (St. Louis, Mo.).
The rabbits were fed for 6 weeks while being allowed free access to the diets and water.
(Step 3) Analysis for fatty streak in the main artery
The chest of each of the rabbits sacrificed in Step 2 was incised. The downward portion of the main artery from the site 1 cm above the aortic valve was cut out in a length of about 5 cm and the fat surrounding the main artery was removed. The main artery was incised in the middle along the longitudinal axis and pinned to a dish. The moist artery was photographed and, then, the staining of fatty streaks was carried out in accordance with the method of Esper, E., et al. (J. Lab. Clin. Med., 121, 103-110 (1993)) as follows.
A part of the incised main artery was washed three times with anhydrous propylene glycol for 2 min. and stained for 30 min. with a saturated solution of Oil Red O (ORO, Sigma Co.) dissolved in propylene glycol. Thereafter, the artery was washed twice with 85% propylene glycol for 3 min. to remove remaining staining solution and, then washed with physiological saline. The artery was photographed and the photograph was traced. The area of stained region (fatty streak region) was determined with an image analyzer (LEICA, Q-600, Germany) and its proportion (%) to the total arterial area was calculated.
FIGS. 1A, 1B and 1C show the arteries of the rabbits administered with 1% cholesterol (Control group); 1% cholesterol plus 1 mg/kg Lovastatin® (Lovastatin® group); 1% cholesterol plus 0.1% ellagic acid, respectively.

| Molecule | Inhibition of HMG-CoA reductase activity (HMG-CoA reductase) [%] | Fatty streak (proportion of stained region to total arterial area) [1] [%] | plaque formation in the endothelium of the main artery [1] | deposition of macrophages on the arterial endothelium [1] |
| --- | --- | --- | --- | --- |
| O=C(O)c1cc(O)c(O)c(O)c1 [Gallic acid, gallic acid] | 6.0 | 10 ± 2 | inhibit | strongly inhibit |
| tannin | 23.5 | 13 ± 2 | inhibit | strongly inhibit |
